# In patent US20250002452A1, “BICYCLOPENTANE DERIVATIVES” (ICAGEN, LLC, priority 2022, published 2025):
# Molecular target: human Kv7.2 (Homo sapiens (Human), UniProt O43526)
# Experiment: SyncroPatch 384 electrophysiology, activation of Kv7.2 in CHO cells
# Type: cell-based
# Settings: Kv7.2 activation max %, relative to 30 μM ML-213 max activation
# Procedure: The potency of Kv7 uotentiators was determined using the SyncroPatch 384 (Nanion) high throughput electrophysiology platform.
# CHO cells stably expressing either human Kv7.2, Kv7.4 or Kv7.5/7.3 under a constitutive CMV promoter were used for these studies. Cells were maintained in F12 Hams+1 mM L-glutamine (Hyclone) supplemented with 10% FBS (Sigma), 0.3× NEAA (Non-essential Gamino-acids) and 400ug/ml G418 at 37° C. in 5% CO2. Cells were cultured in T-225 flasks (Nunc) for 2-3 days to reach 85-95% confluence prior to electrophysiological recording.
# Earle's balanced salt solution (in mM): 135 NaCl, 5.4 KCl, 5 Glucose, 2 CaCl2), 1 MgCl2, 5 HEPES, pH 7.4. Seal enhancer solution (in mM): 90 NaCl, 3 KCl, 35 CaCl2), 10 MgCl2, 10 HEPES, pH 7.4. Extracellular recording solution (in mM): 71 NaCl, 70 NMDG, 13 KCl, 5 Glucose, 2 CaCl2), 1 MgCl2, 10 HEPES, pH 7.4. Intracellular recording solution (in mM): 130 KF, 20 KCl, 4 EGTA, 10 HEPES, 2 EDTA, 0.01 Escin, pH 7.2.
# Cells were harvested for electrophysiological recording upon reaching appropriate confluence. Cells were first washed in DPBS (Hyclone, Cat #SH30028.03) and then 2 ml of Accutase (MP Biomedicals #1000449) was added at 28° C. until ˜90% of cells were suspended. F12 HAM's media+1 mM L-glutamine (Hyclone, SH30026.02) was then added to the flask to dilute the accutase. Cells were then triturated until a single cell suspension was achieved, a cell count was performed, and cells were centrifuged for 2 min. at 1,000 rpm. Media was then aspirated, and cells were resuspended in Earle's balanced salt solution to a concentration of 0.75×10^6 cells/ml and allowed to recover for 25 min at 10° C.
# At the beginning of each assay, 20 μl of cell suspension was dispensed into each well of a multi-hole 384-well SyncroPatch chip by the onboard pipettor. Cell sealing was initiated, and seal enhancer solution was added to facilitate seal formation. Upon completion of sealing, cells were washed 3 times with extracellular recording solution and the assay voltage protocol was started. Human Kv7.2, Kv7.4 or Kv7.5/7.3 channels were evaluated using a voltage protocol in which cells were voltage-clamped at a holding potential of −60 mV. Potassium currents were continuously activated with a series of three voltage steps to −30 mV for 3 seconds, 40 mV for 1 second and −90 mV for 4 seconds with 12 seconds between successive voltage sweeps. Potassium currents were measured from the −90 mV repolarizing step. Baseline current was assessed for 3.5 minutes prior to the addition of 5.6 μM zinc pyrithione (1μM for Kv7.4). Kv7.2, Kv7.4 or Kv7.5/7.3 current in the presence of zinc pyrithione was acquired over five minutes to allow channels to reach steady state activity prior to addition of test agents. Channel activity was monitored for three minutes preceding the addition of 30 μM ML-213 (3 minutes) to achieve maximum activation. 150 mM TEA with 10 μM XE-991 was applied for 2 minutes to measure the leak current during maximum inhibition of Kv7.2, Kv7.4 or Kv7.5/7.3 channels.
# Example 61 Data Analysis Data were collected on the SyncroPatch platform using PatchControl software (Nanion) and processed and analyzed using DataControl Software (Nanion). Percent activation was calculated from potassium current as follows: The average current for the 5 sweeps in the presence of zinc pyrithione immediately preceding test agent addition was taken as the ‘control’ data. Likewise, the average potassium current in the presence of test agents 5 sweeps immediately preceding addition of 30 μM ML-213 was determined for ‘drug’ data. The average potassium current 5 sweeps immediately prior to addition of 150 mM TEA+10 μM XE-991 was determined for ‘max activation’ data while average currents from 5 sweeps immediately following addition of TEA was determined for ‘max inhibition’ data. […]
row,Kv7.2 max [%],SMILES
1,49,"O=C(NCc1cccc(F)c1)NC12CC(F)(C1)C2 [Example 19, 1-(3-fluoro-1-bicyclo[1.1.1]pentanyl)-3-[(3-fluorophenyl)methyl]urea]"
2,40,"CC(NC(=O)NC12CC(F)(C1)C2)c1cccc(OC(F)F)c1 (centres unmarked) [Example 38, 1-[1-[3-(difluoromethoxy)phenyl]ethyl]-3-(3-fluoro-1-bicyclo[1.1.1]pentanyl)urea]"
3,86,"CC12CC(NC(=O)NCc3cccc(OC(F)(F)F)c3)(C1)C2 [Example 46, 1-(3-methyl-1-bicyclo[1.1.1]pentanyl)-3-[[3-(trifluoromethoxy)phenyl]methyl]urea]"
4,60,"O=C(NCc1cccc(C(F)F)c1)NC12CC(C(F)(F)F)(C1)C2 [Example 31, 1-[[3-(difluoromethyl)phenyl]methyl]-3-[3-(trifluoromethyl)-1-bicyclo[1.1.1]pentanyl]urea]"
5,58,"O=C(NCc1cccc(Br)c1)NC12CC(C1)C2 [Example 40, 1-(1-bicyclo[1.1.1]pentanyl)-3-[(3-bromophenyl)methyl]urea]"
6,52,"C[C@H](NC(=O)NC12CC(C1)C2)c1cccc(C(F)(F)F)c1 [Example 51, 1-(1-bicyclo[1.1.1]pentanyl)-3-[(1S)-1-[3-(trifluoromethyl)phenyl]ethyl]urea]"
7,40,"C[C@H](NC(=O)NC12CC(F)(C1)C2)c1cccc(Br)c1 [Example 16, 1-[(1S)-1-(3-bromophenyl)ethyl]-3-(3-fluoro-1-bicyclo[1.1.1]pentanyl)urea]"
8,70,"O=C(NCc1cccc(OC(F)(F)F)c1)NC12CC(C(F)(F)F)(C1)C2 [Example 2, 1-[[3-(trifluoromethoxy)phenyl]methyl]-3-[3-(trifluoromethyl)-1-bicyclo[1.1.1]pentanyl]urea]"
9,79,"O=C(NCc1cccc(C(F)(F)F)c1)NC12CC(C1)C2 [Example 23, 1-(1-bicyclo[1.1.1]pentanyl)-3-[[3-(trifluoromethyl)phenyl]methyl]urea]"
10,45,"C[C@H](NC(=O)NC12CC(C1)C2)c1cccc(OC(F)(F)F)c1 [Example 25, 1-(1-bicyclo[1.1.1]pentanyl)-3-[(1S)-1-[3-(trifluoromethoxy)phenyl]ethyl]urea]"
11,73,"COC12CC(NC(=O)NCc3cccc(OC(F)(F)F)c3)(C1)C2 [Example 1, 1-(3-methoxy-1-bicyclo[1.1.1]pentanyl)-3-[[3-(trifluoromethoxy)phenyl]methyl]urea]"
12,64,"COC12CC(NC(=O)NCc3cccc(C(F)(F)F)c3)(C1)C2 [Example 4, 1-(3-methoxy-1-bicyclo[1.1.1]pentanyl)-3-[[3-(trifluoromethyl)phenyl]methyl]urea]"
13,44,"CC(NC(=O)NC12CC(C1)C2)c1cccc(OC(F)(F)F)c1 (centres unmarked) [Example 37, 1-(1-bicyclo[1.1.1]pentanyl)-3-[1-[3-(trifluoromethoxy)phenyl]ethyl]urea]"
14,48,"O=C(N[C@@H](CO)c1cccc(Cl)c1)NC12CC(C(F)(F)F)(C1)C2 [Example 3, 1-[(1R)-1-(3-chlorophenyl)-2-hydroxyethyl]-3-[3-(trifluoromethyl)-1-bicyclo[1.1.1]pentanyl]urea]"
15,80,"O=C(NCc1cccc(C(F)(F)F)c1)NC12CC(F)(C1)C2 [Example 11, 1-(3-fluoro-1-bicyclo[1.1.1]pentanyl)-3-[[3-(trifluoromethyl)phenyl]methyl]urea]"
16,52,"O=C(NCc1cccc(OC(F)F)c1)NC12CC(C(F)(F)F)(C1)C2 [Example 29, 1-[[3-(difluoromethoxy)phenyl]methyl]-3-[3-(trifluoromethyl)-1-bicyclo[1.1.1]pentanyl]urea]"

row,Kv7.2 max [%],SMILES
1,40,"CC(C)C12CC(NC(=O)N[C@@H](C)c3cccc(OC(F)(F)F)c3)(C1)C2 [Example 27, 1-(3-propan-2-yl-1-bicyclo[1.1.1]pentanyl)-3-[(1S)-1-[3-(trifluoromethoxy)phenyl]ethyl]urea]"
2,54,"C#Cc1cccc(CNC(=O)NC23CC(C(F)(F)F)(C2)C3)c1 [Example 32, 1-[(3-ethynylphenyl)methyl]-3-[3-(trifluoromethyl)-1-bicyclo[1.1.1]pentanyl]urea]"
3,82,"O=C(NC12CC(C1)C2)NC1(c2cccc(C(F)(F)F)c2)CC1 [Example 53, 1-(1-bicyclo[1.1.1]pentanyl)-3-[1-[3-(trifluoromethyl)phenyl]cyclopropyl]urea]"
4,67,"O=C(NCc1cccc(OCC(F)(F)F)c1)NC12CC(C(F)(F)F)(C1)C2 [Example 58, 1-[[3-(2,2,2-trifluoroethoxy)phenyl]methyl]-3-[3-(trifluoromethyl)-1-bicyclo[1.1.1]pentanyl]urea]"
5,40,"O=C(N[C@H](CO)c1cccc(Br)c1)NC12CC(C(F)(F)F)(C1)C2 [Example 44, 1-[(1S)-1-(3-bromophenyl)-2-hydroxyethyl]-3-[3-(trifluoromethyl)-1-bicyclo[1.1.1]pentanyl]urea]"
6,67,"CC(C)C12CC(NC(=O)NCc3cccc(C(F)(F)F)c3)(C1)C2 [Example 21, 1-(3-propan-2-yl-1-bicyclo[1.1.1]pentanyl)-3-[[3-(trifluoromethyl)phenyl]methyl]urea]"
7,77,"CC12CC(NC(=O)NCc3cccc(C(F)(F)F)c3)(C1)C2 [Example 20, 1-(3-methyl-1-bicyclo[1.1.1]pentanyl)-3-[[3-(trifluoromethyl)phenyl]methyl]urea]"
8,78,"O=C(N[C@@H](CO)c1cccc(C(F)(F)F)c1)NC12CC(C1)C2 [Example 54, 1-(1-bicyclo[1.1.1]pentanyl)-3-[(1R)-2-hydroxy-1-[3-(trifluoromethyl)phenyl]ethyl]urea]"
9,53,"N#CCOc1cccc(CNC(=O)NC23CC(C(F)(F)F)(C2)C3)c1 [Example 49, 1-[[3-(cyanomethoxy)phenyl]methyl]-3-[3-(trifluoromethyl)-1-bicyclo[1.1.1]pentanyl]urea]"
10,41,"N#Cc1cccc(CNC(=O)NC23CC(C(F)(F)F)(C2)C3)c1 [Example 5, 1-[(3-cyanophenyl)methyl]-3-[3-(trifluoromethyl)-1-bicyclo[1.1.1]pentanyl]urea]"
11,75,"O=C(NCc1cccc(S(F)(F)(F)(F)F)c1)NC12CC(C1)C2 [Example 39, 1-(1-bicyclo[1.1.1]pentanyl)-3-[[3-(pentafluoro-λ6-sulfanyl)phenyl]methyl]urea]"
12,50,"CC12CC(NC(=O)NCc3cccc(C#N)c3)(C1)C2 [Example 14, 1-[(3-cyanophenyl)methyl]-3-(3-methyl-1-bicyclo[1.1.1]pentanyl)urea]"
13,110,"CC(C)(C)c1cccc(CNC(=O)NC23CC(C2)C3)c1 [Example 42, 1-(1-bicyclo[1.1.1]pentanyl)-3-[(3-tert-butylphenyl)methyl]urea]"
14,63,"[2H]C([2H])(NC(=O)NC12CC(C(F)(F)F)(C1)C2)c1cccc(OC(F)(F)F)c1 [Example 35, 1-[dideuterio-[3-(trifluoromethoxy)phenyl]methyl]-3-[3-(trifluoromethyl)-1-bicyclo[1.1.1]pentanyl]urea]"
15,58,"N#Cc1cccc(CNC(=O)NC23CC(C(F)F)(C2)C3)c1 [Example 15, 1-[(3-cyanophenyl)methyl]-3-[3-(difluoromethyl)-1-bicyclo[1.1.1]pentanyl]urea]"
16,75,"O=C(NCc1cccc(OC(F)(F)F)c1)NC12CC(C1)C2 [Example 28, 1-(1-bicyclo[1.1.1]pentanyl)-3-[[3-(trifluoromethoxy)phenyl]methyl]urea]"
